Data published in patent US8410144B2, “Substituted indolo-pyridinone compounds” (ArQule, Inc., priority 2009, dated 2013).
Blank lines part the entries; values can stand above or below the compound they belong to.

Experiments:
MDA-MB-231 = assay: MTS assay, MDA-MB-231 cells; type: cell-based; details: Homo sapiens, 72 hours, read-out: MDA-MB-231, MTS cell kill % inhibition
Description: (§1) Cells were maintained at 37° C., 5% CO2 in DMEM media supplemented with 1% fetal bovine serum, penicillin/streptomycin and fungizone (Invitrogen). Cells were seeded into 96-well tissue culture plates at 3000 per well and cultured at 37° C. for 18 hours. Test compounds were dissolved and diluted to 300× in DMSO then diluted 1:40 in DMEM. Cells were incubated with test compounds for 72 hours followed by incubation with tetrazolium compound (3-(4,5-dimethylthiazol-2-yl)-5-(3-carboxymethoxyphenyl)-2-(4-sulfophenyl)-2H-tetrazolium, inner salt; MTS) and the electron coupling reagent, phenazine methosulfate (PMS) for 4 hours. […] The ability of compounds to inhibit cell growth in this assay is correlated with the reduction of dehydrogenase enzyme activity found in metabolically active cells. The measurement of the absorbance of the formazan was assessed using an ENVISION™ (Perkin Elmer) microplate reader at 492 nm. The calculated IC50 value is the concentration of the test compound that causes a 50% decrease in the absorbance.

KATO III = assay: MTS assay, KATO III cells; type: cell-based; details: Homo sapiens, 72 hours, read-out: KATO III, MTS cell kill % inhibition
Description: as §1

NCI-H1299 = assay: MTS assay, NCI-H1299 cells; type: cell-based; details: Homo sapiens, 72 hours, read-out: NCI-H1299, MTS cell kill % inhibition
Description: as §1

DLD-1 = assay: MTS assay, DLD-1 cells; type: cell-based; details: Homo sapiens, 72 hours, read-out: DLD-1, MTS cell kill % inhibition
Description: as §1

IGF-1R = IGF-1R (Homo sapiens, UniProt P08069); assay: IGFR1 activity assay (ELISA); type: biochemical; details: read-out: IGF-1R, PCT INH (30 μM), ELISA
Description: The disclosed compounds were assayed for their ability to inhibit insulin-like growth factor receptor-1 (IGFR1). Nunc Maxisorb plates were coated with streptavidin by overnight incubation with 100 μL per well of 1 μg/ml Streptavidin in DPBS. Prior to the start of the experiment, the plates were washed with TBST (3×200 μL) and blocked for at least 1 hour by adding 150 μL of 5% BSA/TBST. The plates were washed with TBST (3×200 μL/well) and left to dry immediately before the capture step.
The disclosed test articles and controls (Staurosporine) were prepared using the following assay buffer at 3× desired final concentration (50 mM Tris-HCl, 0.02 mg/ml BSA, 10 mM MgCl2, 0.1 mM Na3VO4, 1 mM EGTA, 12.5 μM ATP, 0.01% NP-40, 1 mM DTT in 10% glycerol/water). 20 μL of the test compounds (or control), 20 μL IGF1R (0.33 ng/μL final concentration), and 20 μL of Pyk-2 (0.05 ng/μL final concentration) were rapidly added to the reaction plate. The plate was incubated at room temperature for one hour.
50 μL was transferred from the reaction plate to the streptavidin coated plate. The capture plate was incubated at room temperature for 30 minutes, then washed with TBST three times. 100 μL/well of Cell Signaling anti-phospho tyrosine was added to the capture plate at a dilution of 1:3000 in 2% BSA/TBST. The plate was incubated for one hour at room temperature then washed 6× with TBST. 100 μL/well of alkaline phosphatase tagged goat anti mouse antibody was added to the capture plate at a dilution of 1:4000 in 2% BSA/TBST. The plate was incubated for one hour at room temperature then washed with TBST six times.
The fluorescent readout is initiated by the addition of 100 μL/well of Attophos reagent (6 mg/10 mL). The reading is done on the Perkin Elmer Envision system.

IGF-1R, sequence (P08069 31-1367): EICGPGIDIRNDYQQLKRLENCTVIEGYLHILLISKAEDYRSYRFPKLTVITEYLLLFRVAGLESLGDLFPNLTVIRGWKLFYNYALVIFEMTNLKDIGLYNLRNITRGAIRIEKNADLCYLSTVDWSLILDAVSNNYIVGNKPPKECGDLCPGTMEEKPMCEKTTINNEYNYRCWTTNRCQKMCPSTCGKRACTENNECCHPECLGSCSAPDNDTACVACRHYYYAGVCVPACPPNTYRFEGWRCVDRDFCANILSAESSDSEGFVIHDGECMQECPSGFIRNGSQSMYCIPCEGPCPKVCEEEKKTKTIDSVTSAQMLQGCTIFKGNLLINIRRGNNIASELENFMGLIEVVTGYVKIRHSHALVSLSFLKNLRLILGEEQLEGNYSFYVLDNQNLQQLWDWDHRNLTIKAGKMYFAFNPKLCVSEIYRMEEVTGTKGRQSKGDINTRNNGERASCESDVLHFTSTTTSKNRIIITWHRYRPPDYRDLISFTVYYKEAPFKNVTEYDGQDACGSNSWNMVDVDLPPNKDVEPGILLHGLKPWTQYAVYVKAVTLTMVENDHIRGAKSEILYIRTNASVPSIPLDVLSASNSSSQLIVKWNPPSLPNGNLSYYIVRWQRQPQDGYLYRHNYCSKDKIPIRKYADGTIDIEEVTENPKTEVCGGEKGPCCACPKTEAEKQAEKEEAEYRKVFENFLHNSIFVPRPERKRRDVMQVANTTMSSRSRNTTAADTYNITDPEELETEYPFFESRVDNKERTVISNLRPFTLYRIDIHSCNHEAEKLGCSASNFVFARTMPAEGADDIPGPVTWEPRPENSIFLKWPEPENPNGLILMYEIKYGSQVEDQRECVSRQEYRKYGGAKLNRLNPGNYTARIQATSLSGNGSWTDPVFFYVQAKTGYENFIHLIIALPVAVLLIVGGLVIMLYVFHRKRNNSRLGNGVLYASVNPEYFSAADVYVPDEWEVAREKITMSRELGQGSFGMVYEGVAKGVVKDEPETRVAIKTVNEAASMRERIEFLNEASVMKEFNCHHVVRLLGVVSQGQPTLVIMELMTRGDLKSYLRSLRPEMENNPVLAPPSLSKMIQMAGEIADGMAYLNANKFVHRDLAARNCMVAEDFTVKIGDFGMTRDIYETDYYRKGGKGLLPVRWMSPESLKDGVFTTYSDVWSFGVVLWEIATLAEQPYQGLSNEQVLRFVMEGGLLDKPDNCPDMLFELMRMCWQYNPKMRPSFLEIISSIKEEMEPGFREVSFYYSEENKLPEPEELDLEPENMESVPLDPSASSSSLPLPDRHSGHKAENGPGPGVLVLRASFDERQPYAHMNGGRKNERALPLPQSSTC

melting point: 125 to 130 °C
SMILES: O=C(NCCCN1CCOCC1)c1ccc2[nH]c(-c3ccc[nH]c3=O)c(-c3cc(Cl)cc(Cl)c3)c2c1 [Compound 75, 3-(3,5-dichlorophenyl)-N-(3-morpholin-4-ylpropyl)-2-(2-oxo-1,2-dihydropyridin-3-yl)-1H-indole-5-carboxamide]
inhibition at 10 µM (MDA-MB-231): 80 to 100% | inhibition at 10 µM (KATO III): 80 to 100% | inhibition at 10 µM (NCI-H1299): 80 to 100% | inhibition at 10 µM (DLD-1): 80 to 100%

melting point: 89 to 92 °C
SMILES: CC(C)c1cccc(-c2c(-c3ccc[nH]c3=O)[nH]c3ccc(C(=O)NCCCN4CCOCC4)cc23)c1 [Compound 71, 3-(3-isopropylphenyl)-N-(3-morpholin-4-ylpropyl)-2-(2-oxo-1,2-dihydropyridin-3-yl)-1H-indole-5-carboxamide]
inhibition at 10 µM (MDA-MB-231): 80 to 100% | inhibition at 10 µM (KATO III): 80 to 100% | inhibition at 10 µM (NCI-H1299): 80 to 100% | inhibition at 10 µM (DLD-1): 80 to 100%

melting point: 151 to 158 °C
SMILES: O=C(NCCCN1CCOCC1)c1cc2c3c(c1)c(-c1ccccc1)c(-c1ccc[nH]c1=O)n3CCC2 [Compound 7, N-(3-morpholin-4-ylpropyl)-2-(2-oxo-1,2-dihydropyridin-3-yl)-1-phenyl-5,6-dihydro-4H-pyrrolo[3,2,1-ij]quinoline-8-carboxamide]
inhibition at 10 µM (MDA-MB-231): < 50% | inhibition at 10 µM (KATO III): < 50% | inhibition at 10 µM (DLD-1): < 50%

melting point: 101 to 110 °C
SMILES: O=C(c1ccc2[nH]c(-c3ccc[nH]c3=O)c(-c3ccc(-c4ccccc4)cc3)c2c1)N1CCc2ccccc2C1 [Compound 47, 3-[3-biphenyl-4-yl-5-(3,4-dihydroisoquinolin-2(1H)-ylcarbonyl)-1H-indol-2-yl]pyridin-2(1H)-one]
inhibition at 10 µM (MDA-MB-231): < 50% | inhibition at 10 µM (KATO III): 50 to 79% | inhibition at 10 µM (NCI-H1299): < 50% | inhibition at 10 µM (DLD-1): 50 to 79%

melting point: 294 to 296 °C
SMILES: O=C(c1ccccc1)N1CCC(c2c(-c3ccc[nH]c3=O)[nH]c3ccccc23)CC1 [Compound 87, 3-[3-(1-benzoylpiperidin-4-yl)-1H-indol-2-yl]pyridin-2(1H)-one]
inhibition at 10 µM (MDA-MB-231): 80 to 100% | inhibition at 10 µM (KATO III): < 50% | inhibition at 10 µM (NCI-H1299): < 50% | inhibition at 10 µM (DLD-1): < 50%

inhibition at 30 µM (IGF-1R): 80 to 100%
SMILES: COc1ccc(-c2c(-c3ccc[nH]c3=O)[nH]c3ccc(C(=O)NCCCN4CCOCC4)cc23)cc1 [Compound 80, 3-(4-methoxyphenyl)-N-(3-morpholin-4-ylpropyl)-2-(2-oxo-1,2-dihydropyridin-3-yl)-1H-indole-5-carboxamide]
inhibition at 10 µM (MDA-MB-231): 50 to 79% | inhibition at 10 µM (KATO III): 80 to 100% | inhibition at 10 µM (NCI-H1299): 50 to 79% | inhibition at 10 µM (DLD-1): 50 to 79%

inhibition at 30 µM (IGF-1R): 80 to 100%
SMILES: CN(CCc1ccccc1)C(=O)c1ccc2[nH]c(-c3ccc[nH]c3=O)c(-c3ccccc3)c2c1 [Compound 23, N-methyl-2-(2-oxo-1,2-dihydropyridin-3-yl)-3-phenyl-N-(2-phenylethyl)-1H-indole-5-carboxamide]
inhibition at 10 µM (MDA-MB-231): 80 to 100% | inhibition at 10 µM (KATO III): 80 to 100% | inhibition at 10 µM (NCI-H1299): 80 to 100% | inhibition at 10 µM (DLD-1): 80 to 100%

inhibition at 30 µM (IGF-1R): 50 to 79%
SMILES: O=C(c1ccc2[nH]c(-c3ccc[nH]c3=O)c(-c3ccc(-c4ccccc4)cc3)c2c1)N1CCN(Cc2ccccn2)CC1 [Compound 41, 3-(3-biphenyl-4-yl-5-{[4-(pyridin-2-ylmethyl)piperazin-1-yl]carbonyl}-1H-indol-2-yl)pyridin-2(1H)-one]
inhibition at 10 µM (MDA-MB-231): 50 to 79% | inhibition at 10 µM (KATO III): 80 to 100% | inhibition at 10 µM (NCI-H1299): 80 to 100% | inhibition at 10 µM (DLD-1): 80 to 100%

The remaining lines, values behind:

SMILES: O=C(NCC1CCNCC1)c1ccc2[nH]c(-c3ccc[nH]c3=O)c(-c3ccccc3)c2c1 [Compound 4, 2-(2-oxo-1,2-dihydropyridin-3-yl)-3-phenyl-N-(piperidin-4-ylmethyl)-1H-indole-5-carboxamide]
melting point: 189 to 191 °C | inhibition at 30 µM (IGF-1R): 80 to 100%

SMILES: O=C(NC1CCNCC1)c1ccc2[nH]c(-c3ccc[nH]c3=O)c(-c3ccccc3)c2c1 [Compound 3, 2-(2-oxo-1,2-dihydropyridin-3-yl)-3-phenyl-N-piperidin-4-yl-1H-indole-5-carboxamide]
melting point: 233 to 236 °C | inhibition at 30 µM (IGF-1R): 50 to 79%

SMILES: O=C(NCCCn1ccnc1)c1ccc2[nH]c(-c3ccc[nH]c3=O)c(-c3ccccc3)c2c1 [Compound 6, N-[3-(1H-imidazol-1-yl)propyl]-2-(2-oxo-1,2-dihydropyridin-3-yl)-3-phenyl-1H-indole-5-carboxamide]
inhibition at 10 µM (MDA-MB-231): 50 to 79% | inhibition at 10 µM (KATO III): 80 to 100% | melting point: 153 to 157 °C | inhibition at 10 µM (NCI-H1299): 80 to 100% | inhibition at 10 µM (DLD-1): 50 to 79%

SMILES: O=c1[nH]cccc1-c1[nH]c2ccccc2c1C1CCN(S(=O)(=O)c2ccccc2)CC1 [Compound 86, 3-{3-[1-(phenylsulfonyl)piperidin-4-yl]-1H-indol-2-yl}pyridin-2(1H)-one]
inhibition at 10 µM (MDA-MB-231): < 50% | inhibition at 10 µM (KATO III): < 50% | melting point: 215 to 217 °C | inhibition at 10 µM (NCI-H1299): < 50% | inhibition at 10 µM (DLD-1): < 50%

SMILES: COc1ccc(NC(=O)c2ccc3[nH]c(-c4ccc[nH]c4=O)c(-c4ccc(-c5ccccc5)cc4)c3c2)cc1 [Compound 48, 3-biphenyl-4-yl-N-(4-methoxyphenyl)-2-(2-oxo-1,2-dihydropyridin-3-yl)-1H-indole-5-carboxamide]
inhibition at 10 µM (KATO III): 50 to 79% | melting point: 154 to 162 °C | inhibition at 30 µM (IGF-1R): < 50% | inhibition at 10 µM (NCI-H1299): 50 to 79% | inhibition at 10 µM (DLD-1): 50 to 79%

SMILES: O=c1[nH]cccc1-c1[nH]c2ccccc2c1C1CCN(Cc2ccccc2)CC1 [Compound 85, 3-[3-(1-benzylpiperidin-4-yl)-1H-indol-2-yl]pyridin-2(1H)-one]
inhibition at 10 µM (MDA-MB-231): < 50% | inhibition at 10 µM (KATO III): < 50% | melting point: 135 to 139 °C | inhibition at 10 µM (DLD-1): < 50%

SMILES: COCC(C)NC(=O)c1ccc2[nH]c(-c3ccc[nH]c3=O)c(-c3ccccc3)c2c1 (stereo not shown) [Compound 11, N-(2-methoxy-1-methylethyl)-2-(2-oxo-1,2-dihydropyridin-3-yl)-3-phenyl-1H-indole-5-carboxamide]
inhibition at 10 µM (MDA-MB-231): < 50% | inhibition at 10 µM (KATO III): 80 to 100% | inhibition at 30 µM (IGF-1R): 80 to 100% | inhibition at 10 µM (NCI-H1299): 50 to 79% | inhibition at 10 µM (DLD-1): 50 to 79%

SMILES: O=C(NCCCN1CCOCC1)c1ccc2[nH]c(-c3ccc[nH]c3=O)c(-c3csc4ccccc34)c2c1 [Compound 74, 3-(1-benzothien3-yl)-N-(3-morpholin-4-ylpropyl)-2-(2-oxo-1,2-dihydropyridin-3-yl)-1H-indole-5-carboxamide]
inhibition at 10 µM (MDA-MB-231): 50 to 79% | inhibition at 10 µM (KATO III): 80 to 100% | inhibition at 30 µM (IGF-1R): 80 to 100% | inhibition at 10 µM (NCI-H1299): 50 to 79% | inhibition at 10 µM (DLD-1): 50 to 79%

SMILES: O=C(NCCCN1CCOCC1)c1ccc2[nH]c(-c3ccc[nH]c3=O)c(-c3ccc(F)cc3)c2c1 [Compound 68, 3-(4-fluorophenyl)-N-(3-morpholin-4-ylpropyl)-2-(2-oxo-1,2-dihydropyridin-3-yl)-1H-indole-5-carboxamide]
inhibition at 10 µM (MDA-MB-231): < 50% | inhibition at 10 µM (KATO III): < 50% | inhibition at 30 µM (IGF-1R): 80 to 100% | inhibition at 10 µM (NCI-H1299): 50 to 79% | inhibition at 10 µM (DLD-1): < 50%

SMILES: O=C(NCCCN1CCOCC1)c1ccc2[nH]c(-c3ccc[nH]c3=O)c(-c3ccc4ncccc4c3)c2c1 [Compound 83, N-(3-morpholin-4-ylpropyl)-2-(2-oxo-1,2-dihydropyridin-3-yl)-3-quinolin-6-yl-1H-indole-5-carboxamide]
inhibition at 10 µM (MDA-MB-231): 80 to 100% | inhibition at 10 µM (KATO III): 80 to 100% | inhibition at 30 µM (IGF-1R): 80 to 100% | inhibition at 10 µM (NCI-H1299): 80 to 100% | inhibition at 10 µM (DLD-1): 80 to 100%
